Laboratory results published in PubChem BioAssay AID2060602 (Molecular Pharmacology Branch, DTP, NCI, 2025).
pIC50: −log10 of the molar value. Where “and” joins values, the source holds several entries; their conditions need not be identical. Identical values can stand only once.

System: 648629-189-R-J1-PDC complex spheroids viability
Assay: Anticancer human tumor 648629-189-R-J1-PDC patient-derived bladder carcinoma cell line growth inhibition [CLK]
Conditions: for viability, T/C: stronger effect = lower value
Summary of the method: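 Patient-derived tumor cells grown as complex spheroids with HUVEC endothelial cells and mesenchymal stem cells, treated with drug combinations. Concentrations descend in half-log steps from near clinical Cmax, or from 10 microM if Cmax unknown.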

[1] = curve of first compound, second compound 0.0316 µM
[2] = curve of first compound, second compound 0.1 µM
[3] = curve of first compound, second compound 0.316 µM
[4] = curve of first compound, second compound 1 µM
[5] = curve of first compound, second compound 3.16 µM
[6] = curve of first compound, second compound 10 µM
[7] = second compound 0.0316 µM, first compound 0.0316 µM
[8] = second compound 0.0316 µM, first compound 0.1 µM
[9] = second compound 0.0316 µM, first compound 0.316 µM
[10] = second compound 0.0316 µM, first compound 1 µM
[11] = second compound 0.0316 µM, first compound 3.16 µM
[12] = second compound 0.0316 µM, first compound 10 µM
[13] = second compound 0.1 µM, first compound 0.0316 µM
[14] = second compound 0.1 µM, first compound 0.1 µM
[15] = second compound 0.1 µM, first compound 0.316 µM
[16] = second compound 0.1 µM, first compound 1 µM
[17] = second compound 0.1 µM, first compound 3.16 µM
[18] = second compound 0.1 µM, first compound 10 µM
[19] = second compound 0.316 µM, first compound 0.0316 µM
[20] = second compound 0.316 µM, first compound 0.1 µM
[21] = second compound 0.316 µM, first compound 0.316 µM
[22] = second compound 0.316 µM, first compound 1 µM
[23] = second compound 0.316 µM, first compound 3.16 µM
[24] = second compound 0.316 µM, first compound 10 µM
[25] = second compound 1 µM, first compound 0.0316 µM
[26] = second compound 1 µM, first compound 0.1 µM
[27] = second compound 1 µM, first compound 0.316 µM
[28] = second compound 1 µM, first compound 1 µM
[29] = second compound 1 µM, first compound 3.16 µM
[30] = second compound 1 µM, first compound 10 µM
[31] = second compound 3.16 µM, first compound 0.0316 µM
[32] = second compound 3.16 µM, first compound 0.1 µM
[33] = second compound 3.16 µM, first compound 0.316 µM
[34] = second compound 3.16 µM, first compound 1 µM
[35] = second compound 3.16 µM, first compound 3.16 µM
[36] = second compound 3.16 µM, first compound 10 µM
[37] = second compound 10 µM, first compound 0.0316 µM
[38] = second compound 10 µM, first compound 0.1 µM
[39] = second compound 10 µM, first compound 0.316 µM
[40] = second compound 10 µM, first compound 1 µM
[41] = second compound 10 µM, first compound 3.16 µM
[42] = second compound 10 µM, first compound 10 µM
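For viability, T/C in this document: drug exposure lasted seven days before viability readout; 100% = DMSO vehicle control wells.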

For `CC1COCCN1c1cc(C2(S(C)(=N)=O)CC2)nc(-c2ccnc3[nH]ccc23)n1` (stereo not drawn) + CNC(=O)c1ccc(Nc2nc(OC3CCCC3)c3c(-c4ccc5nc(C)oc5c4)c[nH]c3n2)c(OC)c1, the pIC50 [1] was 5.62, the pIC50 [2] was 5.46 and the pIC50 [3] was greater than 7.50. It also gave a pIC50 [4] greater than 7.50, a pIC50 [5] greater than 7.50 and a pIC50 [6] greater than 7.50. For the same compound, the viability, T/C [7] was 112%, the viability, T/C [8] was 115% and the viability, T/C [9] was 98.5%. It also gave a viability, T/C [10] of 83.4%, a viability, T/C [11] of 38.6% and a viability, T/C [12] of 19.3%. For the same compound, the viability, T/C [13] was 90.2%, the viability, T/C [14] was 96.3% and the viability, T/C [15] was 92.1%. It also gave a viability, T/C [16] of 74.2%, a viability, T/C [17] of 53.5% and a viability, T/C [18] of 21.3%. The viability, T/C [19] was 28.9%, the viability, T/C [20] was 34.6% and the viability, T/C [21] was 34.6%. The viability, T/C [22] was 32.4%, the viability, T/C [23] was 22.4% and the viability, T/C [24] was 15.3%. The viability, T/C [25] was 20.5%, the viability, T/C [26] was 25.6% and the viability, T/C [27] was 19.7%. It also gave a viability, T/C [28] of 19.2%, a viability, T/C [29] of 18.9% and a viability, T/C [30] of 16%. The viability, T/C [31] was 16.4%, the viability, T/C [32] was 21.8% and the viability, T/C [33] was 22.3%. It also gave a viability, T/C [34] of 23.1%, a viability, T/C [35] of 21.7% and a viability, T/C [36] of 13.9%. It also gave a viability, T/C [37] of 18.6%, a viability, T/C [38] of 19.7% and a viability, T/C [39] of 20.8%. It also gave a viability, T/C [40] of 20.1%, a viability, T/C [41] of 21.9% and a viability, T/C [42] of 12.4%.

For `CC1COCCN1c1cc(C2(S(C)(=N)=O)CC2)nc(-c2ccnc3[nH]ccc23)n1` (stereo not drawn), the viability, T/C (compound 0.0316 µM) was 103% and 105%, the viability, T/C (compound 0.1 µM) was 96.5% and 93.5% and the viability, T/C (compound 0.316 µM) was 108% and 97%. The viability, T/C (compound 1 µM) was 87.4% and 95%, the viability, T/C (compound 3.16 µM) was 47.8% and 45.4% and the viability, T/C (compound 10 µM) was 23.8% and 18.8%. For the same compound, the pIC50 (curve of compound) was 5.53 and 5.55.

`C=C(F)C(=O)N1CCN(c2nc(OCC3CCCN3C)nc3c2CCN(c2cccc4cccc(Cl)c24)C3)CC1CC#N` (stereo not drawn) + CN1CCN(c2cc(C(=O)Nc3cc4cc(-c5cnn(C)c5)ccc4cn3)ccn2)CC1 gave a pIC50 [1] of 5.24, a pIC50 [2] of 5.27 and a pIC50 [3] greater than 7.50. For the same compound, the pIC50 [4] was greater than 7.50, the pIC50 [5] was greater than 7.50 and the pIC50 [6] was greater than 7.50. It also gave a viability, T/C [7] of 111%, a viability, T/C [8] of 105% and a viability, T/C [9] of 109%. The viability, T/C [10] was 126%, the viability, T/C [11] was 102% and the viability, T/C [12] was 0.2%. The viability, T/C [13] was 106%, the viability, T/C [14] was 114% and the viability, T/C [15] was 98.5%. For the same compound, the viability, T/C [16] was 106%, the viability, T/C [17] was 94.2% and the viability, T/C [18] was 0.16%. The viability, T/C [19] was 46%, the viability, T/C [20] was 45.1% and the viability, T/C [21] was 50%. The viability, T/C [22] was 50.1%, the viability, T/C [23] was 47.5% and the viability, T/C [24] was 0.75%. For the same compound, the viability, T/C [25] was 0.54%, the viability, T/C [26] was 0.36% and the viability, T/C [27] was 0.62%. The viability, T/C [28] was 0.47%, the viability, T/C [29] was 0.48% and the viability, T/C [30] was 0.1%. The viability, T/C [31] was 0.13%, the viability, T/C [32] was 0.15% and the viability, T/C [33] was 0.17%. For the same compound, the viability, T/C [34] was 0.16%, the viability, T/C [35] was 0.14% and the viability, T/C [36] was 0.11%. The viability, T/C [37] was 0.21%, the viability, T/C [38] was 0.19% and the viability, T/C [39] was 0.21%. For the same compound, the viability, T/C [40] was 0.24%, the viability, T/C [41] was 0.25% and the viability, T/C [42] was 0.21%.

With `C=CC(=O)Nc1cc(Nc2nccc(-c3cn(C)c4ccccc34)n2)c(OC)cc1N(C)CCN(C)C` the viability, T/C (compound 0.000949 µM) was 99.8% and 108%, the viability, T/C (compound 0.003 µM) was 92.8% and 88.8% and the viability, T/C (compound 0.00949 µM) was 103% and 107%. For the same compound, the viability, T/C (compound 0.03 µM) was 110% and 92.8%, the viability, T/C (compound 0.0949 µM) was 104% and 111% and the viability, T/C (compound 0.3 µM) was 83.7% and 87.5%. It also gave a pIC50 (curve of compound) of less than 6.52.
